Data as given in the NIST ThermoML archive (doi:10.1021/je300252d).

Experiment: mn = molality of the nth substance listed, in mol/kg
Settings: 100 kPa, Liquid, Direct current cell with electrodes

[Na+].c1ccc([B-](c2ccccc2)(c2ccccc2)c2ccccc2)cc1 [sodium tetraphenylboron] + CN(C)C=O
Settings | molar conductivity [S·m2/mol]
283.15 K, m1 = 0.0001121 | 0.004311
283.15 K, m1 = 0.0003006 | 0.004246
283.15 K, m1 = 0.0005305 | 0.004194
283.15 K, m1 = 0.0007538 | 0.0041545
283.15 K, m1 = 0.001184 | 0.0040963
283.15 K, m1 = 0.001959 | 0.0040172
283.15 K, m1 = 0.002964 | 0.0039424
283.15 K, m1 = 0.004014 | 0.0038787
283.15 K, m1 = 0.005905 | 0.0037902
283.15 K, m1 = 0.007908 | 0.0037146
283.15 K, m1 = 0.009953 | 0.0036529
283.15 K, m1 = 0.01189 | 0.003601
288.15 K, m1 = 8.405e-05 | 0.004653
288.15 K, m1 = 0.0003375 | 0.00456
288.15 K, m1 = 0.0005532 | 0.0045097
288.15 K, m1 = 0.0008262 | 0.0044598
288.15 K, m1 = 0.001174 | 0.0044103
288.15 K, m1 = 0.001935 | 0.0043259
288.15 K, m1 = 0.003089 | 0.004235
288.15 K, m1 = 0.003947 | 0.00418
288.15 K, m1 = 0.005926 | 0.0040813
288.15 K, m1 = 0.007888 | 0.004001
288.15 K, m1 = 0.009893 | 0.0039356
288.15 K, m1 = 0.01186 | 0.0038782
293.15 K, m1 = 8.854e-05 | 0.00499
293.15 K, m1 = 0.0003068 | 0.004902
293.15 K, m1 = 0.0005164 | 0.0048481
293.15 K, m1 = 0.0007512 | 0.0047996
293.15 K, m1 = 0.001224 | 0.004726
293.15 K, m1 = 0.001989 | 0.004637
293.15 K, m1 = 0.003077 | 0.0045457
293.15 K, m1 = 0.004001 | 0.004483
293.15 K, m1 = 0.005908 | 0.0043822
293.15 K, m1 = 0.007927 | 0.004295
293.15 K, m1 = 0.009859 | 0.004226
293.15 K, m1 = 0.0119 | 0.004162
298.15 K, m1 = 0.000116 | 0.005325
298.15 K, m1 = 0.0003157 | 0.005244
298.15 K, m1 = 0.0005504 | 0.0051809
298.15 K, m1 = 0.0007618 | 0.0051351
298.15 K, m1 = 0.001217 | 0.0050592
298.15 K, m1 = 0.002007 | 0.0049609
298.15 K, m1 = 0.002964 | 0.0048739
298.15 K, m1 = 0.003939 | 0.004802
298.15 K, m1 = 0.005917 | 0.0046899
298.15 K, m1 = 0.00789 | 0.004599
298.15 K, m1 = 0.009808 | 0.0045256
298.15 K, m1 = 0.01189 | 0.0044558
303.15 K, m1 = 0.0001023 | 0.005694
303.15 K, m1 = 0.0003262 | 0.005596
303.15 K, m1 = 0.0005565 | 0.00553
303.15 K, m1 = 0.0007645 | 0.0054821
303.15 K, m1 = 0.001229 | 0.0053997
303.15 K, m1 = 0.002017 | 0.0052952
303.15 K, m1 = 0.003018 | 0.0051984
303.15 K, m1 = 0.004001 | 0.0051217
303.15 K, m1 = 0.005892 | 0.0050075
303.15 K, m1 = 0.007841 | 0.0049118
303.15 K, m1 = 0.009874 | 0.0048292
303.15 K, m1 = 0.01188 | 0.0047579
308.15 K, m1 = 0.000135 | 0.006046
308.15 K, m1 = 0.0003264 | 0.005961
308.15 K, m1 = 0.0005229 | 0.0058999
308.15 K, m1 = 0.0007539 | 0.0058422
308.15 K, m1 = 0.00122 | 0.0057534
308.15 K, m1 = 0.002002 | 0.0056421
308.15 K, m1 = 0.002969 | 0.005541
308.15 K, m1 = 0.00395 | 0.0054581
308.15 K, m1 = 0.005926 | 0.00533
308.15 K, m1 = 0.007923 | 0.0052265
308.15 K, m1 = 0.009885 | 0.005143
308.15 K, m1 = 0.01187 | 0.0050687
313.15 K, m1 = 8.854e-05 | 0.00646
313.15 K, m1 = 0.0002531 | 0.006367
313.15 K, m1 = 0.0004344 | 0.006299
313.15 K, m1 = 0.00071 | 0.0062208
313.15 K, m1 = 0.001219 | 0.006116
313.15 K, m1 = 0.002012 | 0.0059959
313.15 K, m1 = 0.003006 | 0.0058852
313.15 K, m1 = 0.00399 | 0.0057965
313.15 K, m1 = 0.005907 | 0.0056636
313.15 K, m1 = 0.007913 | 0.0055535
313.15 K, m1 = 0.00989 | 0.0054653
313.15 K, m1 = 0.01185 | 0.0053887
318.15 K, m1 = 0.0001115 | 0.006838
318.15 K, m1 = 0.0002618 | 0.006751
318.15 K, m1 = 0.000487 | 0.006665
318.15 K, m1 = 0.0007457 | 0.0065904
318.15 K, m1 = 0.001234 | 0.0064856
318.15 K, m1 = 0.002038 | 0.0063572
318.15 K, m1 = 0.003 | 0.0062427
318.15 K, m1 = 0.003985 | 0.0061473
318.15 K, m1 = 0.005931 | 0.0060029
318.15 K, m1 = 0.007878 | 0.0058897
318.15 K, m1 = 0.009914 | 0.0057949

CCCC[N+](CCCC)(CCCC)CCCC.[Br-] [tetrabutylammonium bromide] + CN(C)C=O
Settings | molar conductivity [S·m2/mol]
283.15 K, m1 = 9.197e-05 | 0.006236
283.15 K, m1 = 0.0002922 | 0.006141
283.15 K, m1 = 0.0004908 | 0.006078
283.15 K, m1 = 0.0006894 | 0.0060258
283.15 K, m1 = 0.001222 | 0.0059158
283.15 K, m1 = 0.00199 | 0.0057906
283.15 K, m1 = 0.002938 | 0.0056698
283.15 K, m1 = 0.003964 | 0.0055611
283.15 K, m1 = 0.005897 | 0.005399
283.15 K, m1 = 0.007916 | 0.0052571
283.15 K, m1 = 0.009885 | 0.0051385
283.15 K, m1 = 0.01187 | 0.0050378
288.15 K, m1 = 0.0002384 | 0.006641
288.15 K, m1 = 0.0003637 | 0.006588
288.15 K, m1 = 0.0005543 | 0.0065255
288.15 K, m1 = 0.0007699 | 0.0064657
288.15 K, m1 = 0.001232 | 0.0063637
288.15 K, m1 = 0.00201 | 0.0062266
288.15 K, m1 = 0.002974 | 0.0060937
288.15 K, m1 = 0.003946 | 0.005981
288.15 K, m1 = 0.005906 | 0.0058005
288.15 K, m1 = 0.007894 | 0.0056496
288.15 K, m1 = 0.009876 | 0.0055214
288.15 K, m1 = 0.01183 | 0.0054109
293.15 K, m1 = 0.000124 | 0.007196
293.15 K, m1 = 0.000358 | 0.007067
293.15 K, m1 = 0.0005617 | 0.006993
293.15 K, m1 = 0.0007496 | 0.0069356
293.15 K, m1 = 0.001203 | 0.006825
293.15 K, m1 = 0.001974 | 0.0066764
293.15 K, m1 = 0.002962 | 0.006528
293.15 K, m1 = 0.003941 | 0.0064046
293.15 K, m1 = 0.005913 | 0.0062071
293.15 K, m1 = 0.007899 | 0.0060446
293.15 K, m1 = 0.009903 | 0.0059059
293.15 K, m1 = 0.01185 | 0.0057855
298.15 K, m1 = 8.12e-05 | 0.00773
298.15 K, m1 = 0.0003247 | 0.007565
298.15 K, m1 = 0.0005335 | 0.007478
298.15 K, m1 = 0.000754 | 0.0074043
298.15 K, m1 = 0.001188 | 0.0072894
298.15 K, m1 = 0.001985 | 0.0071236
298.15 K, m1 = 0.002972 | 0.0069641
298.15 K, m1 = 0.003989 | 0.0068266
298.15 K, m1 = 0.005892 | 0.0066212
298.15 K, m1 = 0.007909 | 0.0064436
298.15 K, m1 = 0.009849 | 0.0062996
298.15 K, m1 = 0.0119 | 0.0061631
303.15 K, m1 = 0.0001279 | 0.008182
303.15 K, m1 = 0.0003737 | 0.008028
303.15 K, m1 = 0.0004937 | 0.007975
303.15 K, m1 = 0.0007203 | 0.0078909
303.15 K, m1 = 0.00121 | 0.0077502
303.15 K, m1 = 0.002013 | 0.0075724
303.15 K, m1 = 0.002974 | 0.0074063
303.15 K, m1 = 0.003957 | 0.0072634
303.15 K, m1 = 0.005917 | 0.0070358
303.15 K, m1 = 0.00787 | 0.0068512
303.15 K, m1 = 0.009823 | 0.0066956
303.15 K, m1 = 0.01184 | 0.0065521
308.15 K, m1 = 0.0001375 | 0.008672
308.15 K, m1 = 0.0003374 | 0.008537
308.15 K, m1 = 0.0005902 | 0.008422
308.15 K, m1 = 0.0007253 | 0.0083707
308.15 K, m1 = 0.001221 | 0.0082189
308.15 K, m1 = 0.002004 | 0.0080331
308.15 K, m1 = 0.002993 | 0.0078504
308.15 K, m1 = 0.003956 | 0.0077012
308.15 K, m1 = 0.005922 | 0.0074573
308.15 K, m1 = 0.007903 | 0.0072572
308.15 K, m1 = 0.009896 | 0.007088
308.15 K, m1 = 0.01189 | 0.0069381
313.15 K, m1 = 6.835e-05 | 0.009246
313.15 K, m1 = 0.0003232 | 0.009042
313.15 K, m1 = 0.0005979 | 0.008909
313.15 K, m1 = 0.0007057 | 0.0088651
313.15 K, m1 = 0.001228 | 0.0086936
313.15 K, m1 = 0.002045 | 0.0084879
313.15 K, m1 = 0.002992 | 0.0083023
313.15 K, m1 = 0.003971 | 0.0081415
313.15 K, m1 = 0.00585 | 0.0078927
313.15 K, m1 = 0.00787 | 0.0076738
313.15 K, m1 = 0.009873 | 0.0074917
313.15 K, m1 = 0.01189 | 0.007332
318.15 K, m1 = 9.782e-05 | 0.009714
318.15 K, m1 = 0.0003254 | 0.009541
318.15 K, m1 = 0.0005324 | 0.009434
318.15 K, m1 = 0.0007651 | 0.0093342
318.15 K, m1 = 0.001206 | 0.0091821
318.15 K, m1 = 0.001977 | 0.0089725
318.15 K, m1 = 0.002989 | 0.0087596
318.15 K, m1 = 0.003967 | 0.0085894
318.15 K, m1 = 0.005938 | 0.0083142
318.15 K, m1 = 0.007894 | 0.0080896
318.15 K, m1 = 0.009905 | 0.0078947
318.15 K, m1 = 0.01189 | 0.0077299
